Test [1] has as its system fleshfly larvae. The test can be described thus: Acceleration of pupariation after injection into fleshfly larvae. In kind it is in vivo, Sarcophaga bullata. Conditions: injected into fleshfly larvae.
For test [2], the system named is virgin females of Heliothis virescens. The test can be described thus: Pheromonotropic assay (injection). Format: in vivo. As to the method: Pupae of H. virescens were obtained from a laboratory colony maintained at the Insect Attractants, Behavior and Basic Biology Research Laboratory, USDA-ARS, in Gainesville, Fla. The pupae were separated by sex and the males were discarded. After eclosion, the females were held in 4-1 cages and provided with cotton wicks soaked with 5% sucrose solution. The insects were held at 25°±2° C, 65±3% relative humidity with a 12:12 (L:D) photoperiod. Virgin females were used for bioassays 2 and 3 days after eclosion during the 7th-8th hour of the photophase when endogenous levels of pheromone are very low (Abernathy, 1995, Regulation of sex pheromone production and oviposition in virgin females of noctuid moths, doctoral dissertation, University of Florida, Gainesville, Fla., pp. 1-107).
Pheromone biosynthesis neuropeptide from H. zea (Hez--PBAN) and the carboranyl pseudopeptide Cbe--Thr--Pro--Arg--Leu--NH2 were dissolved in physiological saline (Christensen et al., 1991, Proc. Natl. Acad. Sci. USA, 88:4971-4975). Female H. virescens insects were injected through the side of the third abdominal segment using a 26-ga needle with 20 μl of the above solutions. Each female received a dose of 0.01, 0.03, 0.1, 0.3, 1, 3, 10, 30, 100 or 300 pmol. After 1 h of incubation, the terminal abdominal segments, which contain the pheromone gland, were excised and placed in 10 μl of hexane containing 10 ng each of internal standards (octadecane and nonadecane) used for quantitation and calculation of relative retention indices. The pheromone gland extracts were analyzed for the amount of (Z)-11-hexadecenal (Z11-16:AL), the major sex pheromone component of H. virescens (Klun et al., 1980, J. Chem. Ecol., 6:165-175) by capillary gas chromatography. Hewlett-Packard 5890 gas chromatographs were equipped with splitless injectors, flame ionization detectors, and 30 m×0.25 mm (i.d.) fused silica "SPB 10" (polar) or "SPB1" (apolar) columns (Supelco). Conditions of chromatography were as follows: initial temperature=60° C.; injector operated in the splitless mode for 0.5 min; oven temperature increased by 30° C./min after 1 min; final temperature=190° C. ("SPB10") or 200° C. ("SPB1"); helium carrier gas at a linear flow velocity of 18 cm/s. A Nelson Analytical 3000° acquisition system (Cupertino, Calif.) was used to collect and analyze the data (Teal et al., 1989, Proc. Natl. Acad. Sci. USA, 86:2488-2492).
After the dose response of Hez--PBAN was completed, the […] dose was chosen to use for comparison with the carboranyl pseudopeptide assayed here. Insects were also injected with saline alone as a control. The pseudopeptide was prepared by dilution with saline as described above. Based on the dose-response for the activity of Hez--PBAN, […] were chosen to assess the pheromonotropic activity of the carboranyl pseudopeptide. Females were injected with 20 μl containing 0.01, 0.03, 0.1, 0.3, 1, 3, 10, 30, 100, or 300 pmol. Each bioassay consisted of one dose of several different peptides along with saline and Hez--PBAN controls. The amount of pheromone present in extracts of the pheromone glands of females from each group was compared with that produced by females injected with 5 pmol of Hez--PBAN during that particular bioassay. After all the bioassays were completed, the amount of pheromone produced by each insect was calculated as a percentage of the amount of pheromone produced by females treated with Hez--PBAN. Data were analyzed using one-way ANOVA and t-test with "STATVIEW" software. Variability was reported as SEM.
The pheromonotropic activity of Hez--PBAN, Lom--MT--II and [6--Pha--Ala^0 ]Lom--MT--II was first determined by a series of injection bioassays. Peptides were dissolved in physiological saline (Christensen et al., ibid) and diluted to concentrations of 0.003, 0.01, 0.03, 0.1, 0.3, 1.0, 3.0 and 10.0 pmol/μl. Insects were injected through the side of the 3rd abdominal segment using a 26 ga. needle with 20 μl of the above solutions. […]

Consider Cbe--Thr--Pro--Arg--Leu--NH2, for which, in test [1], the concentration accelerating pupariation was no more than 0.25 picomoles/insect. Besides, the “potency relative to 33-membered HezPBAN, injection” value in test [2] (H. virescens) is 10 fold; in test [2] (H. virescens, listed as carboranyl analog) it was “equipotent”. Further, the “ED50, pheromone production following injection” value in test [2] (H. virescens females, FIG. 3) came to 0.1 pmoles/female. The “ED50, pheromone production via injection” value in test [2] (H. virescens females, glands extracted 60 min after injection) came to 0.1 pmol. Besides, the “dose eliciting a 100% response, injection” value in test [2] (H. virescens, FIG. 3) amounted to 2.5 pmoles/female. In addition, in test [2] (maximal pheromone production relative to 5 pmoles PBAN via injection), the “Maximal Response via injection (dose)” value was determined as 2.5 pmol.

The values above are taken from patent publication US5795857A, “Mimetic insect pyrokinin analogs for insect control” (The United States of America as represented by the …, priority 1996, dated 1998).
